Results reported in ChEMBL document CHEMBL2311372, “Design and synthesis of novel benzoheterocyclic derivatives as human acrosin inhibitors by scaffold hopping” (Eur J Med Chem, 2013).

Target: Acrosin (Homo sapiens, UniProt P10323)
Test: Inhibition of human acrosin using N-alpha-benzoyl-DL-arginine para-nitroanilide-HCl as substrate after 3 hrs by spectrophotometry

Chain of Acrosin (P10323 20-42 limits assumed): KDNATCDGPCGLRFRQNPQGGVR
Chain of Acrosin (P10323 43-343 limits assumed): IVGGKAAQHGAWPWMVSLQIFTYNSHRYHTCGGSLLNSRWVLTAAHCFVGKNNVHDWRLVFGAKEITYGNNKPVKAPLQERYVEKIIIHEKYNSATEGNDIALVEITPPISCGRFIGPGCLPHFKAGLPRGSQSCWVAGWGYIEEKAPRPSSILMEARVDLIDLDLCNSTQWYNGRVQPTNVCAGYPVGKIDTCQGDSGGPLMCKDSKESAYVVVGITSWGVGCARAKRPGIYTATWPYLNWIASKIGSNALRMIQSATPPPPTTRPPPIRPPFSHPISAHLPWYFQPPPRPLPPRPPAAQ

IC50 [mM] | SMILES
39 | O=Cc1cc(-c2ccc(Cl)cc2Cl)on1
0.08 | O=C(NCCO)Nc1nc2ccc(S(=O)(=O)NCc3ccccc3F)cc2[nH]1
7.32 | COc1cccc(CNS(=O)(=O)c2ccc3nc(NC(=O)NCCO)[nH]c3c2)c1
2.45 | O=C(NCCO)Nc1nc2ccc(S(=O)(=O)NCc3cc(Cl)cc(Cl)c3)cc2[nH]1
0.34 | O=C(NCCO)Nc1nc2ccc(S(=O)(=O)NCc3cc(F)cc(F)c3)cc2[nH]1
6.04 | COc1ccccc1CNS(=O)(=O)c1ccc2nc(NC(=O)NCCO)[nH]c2c1
5.45 | Cc1cccc(CNS(=O)(=O)c2ccc3nc(NC(=O)NCCO)[nH]c3c2)c1
0.28 | O=C(NCCO)Nc1nc2ccc(S(=O)(=O)NCc3ccccc3)cc2[nH]1
1.06 | O=C(NCCO)Nc1nc2ccc(S(=O)(=O)NCc3ccccc3Cl)cc2[nH]1
1.62 | CCCCCCNS(=O)(=O)c1ccc2nc(NC(=O)NCCO)[nH]c2c1
2.78 | CCCCN(CCCC)CC(=O)Nc1nc2ccc(Br)cc2s1
1.09 | CC(C)CCN(CCC(C)C)CC(=O)Nc1nc2ccc(Br)cc2s1
0.54 | CCCCCN(CCCCC)CC(=O)Nc1nc2ccc(Br)cc2s1
5.08 | CCCCCN1CCN(CC(=O)Nc2nc3ccc(Br)cc3s2)CC1
6.81 | COc1ccc(-c2cc(C(=O)N(C)CCO)n[nH]2)cc1
5.73 | COc1ccc(-c2cc(C(=O)N(CCO)CCO)n[nH]2)cc1
1.43 | COc1ccc(-c2cc(C(=O)NCCCO)[nH]n2)cc1
8.92 | COc1ccc(-c2cc(C(=O)NCC(C)O)n[nH]2)cc1 (stereo unspecified)
3.24 | CCOC(=O)c1nn(C(=O)c2ccc(Cl)cc2Cl)c2ccccc12

SMILES | IC50 [mM]
CNC(=O)c1nn(C(=O)c2ccc(Cl)cc2Cl)c2ccccc12 | 3.78
Cc1ccc(S(=O)(=O)NC(CCCCN)C(=O)CCl)cc1 (stereo unspecified) | 143
